According to paper PMC4441592 (Neuron, 2015):

What was measured:
KOR = KOR (Homo sapiens, UniProt P41145); assay: cell-based
KORD (D138N hKOR) = KORD (D138N hKOR) (Homo sapiens, UniProt P41145, D138N); assay: cell-based
CNS molecular targets = assay: NIMH Psychoactive Drug Screening Program profiling; conditions: NIMH PDSP; except low KOR binding affinity
[1] = system: muscarinic receptor- based DREADDs (Gq, Gi and Gs DREADDs); assay: Activity at muscarinic receptor-based DREADDs; assay type: cell-based
mice [2] = conditions: mouse, in vivo
E297A mutant = E297A mutant (Homo sapiens, UniProt P41145, E297A); assay: Affinity and agonist potency at E297A KOR mutant; assay type: cell-based; conditions: E297A mutant alone
VTA/SN neurons = assay: Miniature IPSC recording in VTA/SN neurons; assay type: cell-based; conditions: naive mice; 100 nM
[3] = system: VGAT-ires-Cre mice, VTA/SN^VGAT neurons; assay: Locomotor activity; assay type: in vivo; conditions: mice expressing both KORD and hM3Dq in VTA/SN^VGAT neurons; 10.0 mg/kg; different testing sessions
[4] = system: SIM1-Cre mice, PVH^SIM1 neurons; assay: Feeding study in SIM1-cre mice; assay type: in vivo; conditions: wild type control mice injected with cre-dependent KORD virus; 10 mg/kg s.c.
mice [5] = conditions: mouse, in vivo; remark: listed apart in the source
C57BL/6J mice = conditions: mouse, in vivo

Chain of KORD (D138N hKOR) (P41145 whole entry D138N): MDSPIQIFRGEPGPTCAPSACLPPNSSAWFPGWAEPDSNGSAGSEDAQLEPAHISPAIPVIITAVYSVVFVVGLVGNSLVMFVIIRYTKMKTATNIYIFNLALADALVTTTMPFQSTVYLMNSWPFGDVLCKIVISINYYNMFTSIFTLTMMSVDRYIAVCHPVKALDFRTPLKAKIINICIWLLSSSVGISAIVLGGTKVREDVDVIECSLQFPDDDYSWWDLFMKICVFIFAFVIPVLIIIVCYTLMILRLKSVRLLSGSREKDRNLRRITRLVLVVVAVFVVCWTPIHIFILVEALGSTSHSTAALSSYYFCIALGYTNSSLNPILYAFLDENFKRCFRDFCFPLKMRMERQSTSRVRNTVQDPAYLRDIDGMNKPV
Chain of KOR (P41145 whole entry): as the sequence (P41145 whole entry D138N) above, with N138D counted along it
Chain of E297A mutant (P41145 whole entry E297A): as the sequence (P41145 whole entry D138N) above, with N138D, E297A counted along it

Q: What does the source list for `COC(=O)[C@@H]1C[C@H](O)C(=O)[C@H]2[C@@]1(C)CC[C@H]1C(=O)O[C@H](c3ccoc3)C[C@]21C` [Salvinorin B, salvinorin B]?
A: Emax (KOR): 80%; Emax (%) (KOR): 100%; Emax (KORD (D138N hKOR)): 94%; Emax (%) (KORD (D138N hKOR)): 100%; activity against a large number of CNS molecular targets (CNS molecular targets): failed to show any activity; activity at muscarinic receptor-based DREADDs [1]: inactive; hot plate test effect (analgesia) (mice [2]): did not alter performance relative to controls; effect of E297A mutation on agonist potency (E297A mutant): no effect on SALB agonist potency; mIPSCs (frequency and amplitude) (VTA/SN neurons): no effect; locomotor activity vs vehicle [3]: enhanced locomotor activity; feeding effect [4]: no feeding effects; rotarod test effect (impairment of motor performance) (mice [5]): did not alter performance relative to controls; brain stimulation reward thresholds (ICSS) (C57BL/6J mice): failed to significantly elevate thresholds
